27 compounds from US20200157092A1, “[1,2,4]-TRIAZOLO [1,5-A]-PYRIMIDINYL DERIVATIVES SUBSTITUTED WITH PIPERIDINE, […] […] OGA INHIBITORS” (priority 2017, published 2020) can be followed below.

Experiment [1] deals with T1, recombinant human Meningioma Expressed Antigen 5 (MGEA5), also referred to as O-GlcNAcase (OGA) (Homo sapiens, UniProt O60502).
T1 construct: Full length OGA enzyme was purchased at OriGene (cat # TP322411); purchased OriGene TP322411
T1 sequence (O60502 1-916): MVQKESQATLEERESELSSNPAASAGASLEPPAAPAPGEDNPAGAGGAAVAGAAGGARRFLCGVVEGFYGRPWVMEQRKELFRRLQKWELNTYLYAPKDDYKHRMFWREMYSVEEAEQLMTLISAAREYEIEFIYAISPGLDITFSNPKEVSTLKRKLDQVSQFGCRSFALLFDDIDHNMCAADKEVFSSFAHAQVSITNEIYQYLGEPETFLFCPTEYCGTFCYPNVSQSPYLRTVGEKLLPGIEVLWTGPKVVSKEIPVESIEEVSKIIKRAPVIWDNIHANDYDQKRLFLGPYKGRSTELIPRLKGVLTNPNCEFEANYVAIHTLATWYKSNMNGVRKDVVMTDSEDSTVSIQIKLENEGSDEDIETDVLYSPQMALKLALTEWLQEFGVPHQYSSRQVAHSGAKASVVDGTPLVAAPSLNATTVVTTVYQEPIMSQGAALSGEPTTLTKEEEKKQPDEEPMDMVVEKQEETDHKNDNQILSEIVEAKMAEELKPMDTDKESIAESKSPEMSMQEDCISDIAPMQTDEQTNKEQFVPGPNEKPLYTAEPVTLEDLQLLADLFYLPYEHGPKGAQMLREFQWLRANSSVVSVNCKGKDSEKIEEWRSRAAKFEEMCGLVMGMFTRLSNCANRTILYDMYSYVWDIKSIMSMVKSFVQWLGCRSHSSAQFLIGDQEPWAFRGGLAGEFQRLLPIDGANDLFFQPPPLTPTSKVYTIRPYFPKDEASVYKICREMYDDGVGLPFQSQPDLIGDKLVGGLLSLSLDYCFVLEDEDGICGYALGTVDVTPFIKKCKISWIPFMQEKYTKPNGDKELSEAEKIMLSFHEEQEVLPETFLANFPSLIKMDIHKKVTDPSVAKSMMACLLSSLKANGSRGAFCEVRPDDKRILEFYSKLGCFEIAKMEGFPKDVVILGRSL
The experiment in a line: OGA biochemical assay: inhibition of FM-GlcNAc hydrolysis, fluorescence; protocol A (10 nM OGA, 1 h) or protocol B (2 nM OGA, 6 h). Conditions: for IC50: read-out: Enzymatic hOGA, pIC50 (converted). On the procedure: The hydrolysis FM-GlcNAc (Marker Gene technologies, cat # M1485) results in the formation of ß-D-N-glucosamineacetate and fluorescein. The fluorescence of the latter can be measured at excitation wavelength 485 nm and emission wavelength 538 nm. An increase in enzyme activity results in an increase in fluorescence signal. Full length OGA enzyme was purchased at OriGene (cat # TP322411). The enzyme was stored in 25 mM Tris.HCl, pH 7.3, 100 mM glycine, 10% glycerol at −20° C. […] The assay was performed in 200 mM Citrate/phosphate buffer supplemented with 0.005% Tween-20. 35.6 g Na2HPO4 2 H2O (Sigma, # C0759) were dissolved in 1 L water to obtain a 200 mM solution. […] The buffer to stop the reaction consists of a 500 mM Carbonate buffer, pH 11.0. […] OGA was used at a 10 nM (protocol A) or 2 nM (protocol B) concentration and FM-GlcNAc at a 100 uM final concentration. Dilutions were prepared in assay buffer.
Plates were pre-incubated for 60 min at room temperature and then 2 μl FM-GlcNAc substrate mix added. […] Plates were briefly centrifuged for 1 min at 1000 rpm and incubate at room temperature for 1 h (10 nM OGA, protocol A) or 6 h (2 nM OGA, protocol B). To stop the reaction 5 μl STOP buffer were added and plates centrifuge again 1 min at 1000 rpm. Fluorescence was quantified in the Thermo Scientific Fluoroskan Ascent or the PerkinElmer EnVision with excitation wavelength 485 nm and emission wavelength 538 nm.
For analysis a best-fit curve is fitted by a minimum sum of squares method. From this an IC50 value and Hill coefficient was obtained. High control (no inhibitor) and low control (saturating concentrations of standard inhibitor) were used to define the minimum and maximum values.

For the next experiment, the target named is T2, OGA (Homo sapiens, UniProt O60502).
T2 construct: HEK293 cells inducible for P301L mutant human Tau (isoform 2N4R) were established at Janssen; endogenous in cells; host or cells: HEK293 cells inducible for P301L mutant human Tau (2N4R)
T2 sequence (O60502 1-916): T1 sequence (O60502 1-916)
The experiment in a line: OGA cellular assay: immunocytochemical detection of O-GlcNAcylated proteins in HEK293 cells inducible for P301L mutant human Tau. Conditions: for Emax: HEK293, read-out: Cellular Emax (%); for Cellular hOGA; pEC50 / Cellular Emax (%): HEK293 cells inducible for P301L mutant human Tau, 6 hours incubation; for Cellular Emax (%): maximum = Thiamet G 200 uM. The class given is cell-based. From the text:
HEK293 cells inducible for P301L mutant human Tau (isoform 2N4R) were established at Janssen. Thiamet-G was used for both plate validation (high control) and as reference compound (reference EC50 assay validation). […] Inhibition of OGA will result in an increase of O-GlcNAcylated protein levels resulting in an increased signal in the experiment. […] ICC pictures are imaged with a Perkin Elmer Opera Phenix plate microscope and quantified with the provided software Perkin Elmer Harmony 4.1.
Cells were propagated in DMEM high Glucose (Sigma, # D5796) following standard procedures. […] At the day of compound test medium from assay plates was removed and replenished with 90 μl of fresh Assay Medium. 10 μl of compounds at a 10 fold final concentration were added to the wells. Plates were centrifuged shortly before incubation in the cell incubator for 6 hours. DMSO concentration was set to 0.2%. Medium is discarded by applying vacuum. For staining of cells medium was removed and cells washed once with 100 μl D-PBS (Sigma, # D8537). From next step onwards unless other stated assay volume was always 50 μl and incubation was performed without agitation and at room temperature. […] Before analysis samples were washed 2 times manually for 5 minutes in ICC base buffer.
Imaging is performed using Perkin Elmer Phenix Opera using a water 20× objective and recording 9 fields per well. Intensity readout at 488 nm is used as a measure of O-GlcNAcylation level of total proteins in wells. To assess potential toxicity of compounds nuclei were counted using the Hoechst staining. IC50-values are calculated using parametric non-linear regression model fitting. As a maximum inhibition Thiamet G at a 200 uM concentration is present on each plate. In addition, a concentration response of Thiamet G is calculated on each plate.

Where [2] appears, read: Enzymatic protocol B (2 nM OGA, 6 h).
The mark [3] stands for this setting: Enzymatic protocol A (10 nM OGA, 1 h).

Where two headings read alike, the source gives them in different places.

For orientation: Emax means the greatest response seen or fitted, relative to the assay's reference. Broadly, the EC50 is the concentration that produces a half-maximal response. A higher EC50 goes with lower potency in that assay. On to `CC(=O)Nc1ncc(CN2CCCC(c3cnc4cc[nH]c4c3)C2)s1` (stereo not shown) [Product 106], for which, in experiment [1] (setting [2]), the Emax came to 101% and the IC50 was 275 nM. On OGA, the EC50 was 282 nM and the maximal effect (Emax) came out at 71%.
For the compound `CC(=O)Nc1ncc(CN2CCCC(c3nc(C)cc4cc[nH]c34)C2)s1` (stereo not shown) [Product 93], in experiment [1] (setting [2]), the “Enzymatic Emax (%)” value is 101.08% and the “Enzymatic hOGA; pIC50” value is listed as 7.35. Besides, on OGA, the “Cellular hOGA; pEC50” value is recorded as 7.61 and the “Cellular Emax (%)” value is given as 87.83%.
Turning to `CC(=O)Nc1ncc(CN2CCCC(c3cnc4cc[nH]c4c3)C2)s1` (racemic) [Product 26], in experiment [1] (setting [2]), the maximum response (Emax) stood at 123% and the IC50 was 40.7 nM. Further, at OGA, a half-maximal response (EC50) required 24 nM and the Emax was 99%.
In the same order, the values of `CC(=O)Nc1ncc(CN2CCC(Cc3cccc4nccn34)C2)s1` (stereo not shown) [Product 50] are 99.6%, 9.33 nM, 33.9 nM and 103%.
Taken in the same sequence, the figures for `CC(=O)Nc1ncc(CN2CCC(Cc3c(F)c(C)nc4ncnn34)C2)s1` (stereo not shown) [Product 49] were 101%, 1.74 nM, 25.7 nM and 105%.
On to `CC(=O)Nc1ncc(S(=O)(=O)N2CCCC(c3cc(C)nc4ncnn34)C2)s1` (racemic) [Product 3], for which, in experiment [1] (setting [3]), the Emax amounted to 96% and the IC50 was 32.4 nM.
In the case of `CC(c1ccc2c(c1)OCO2)N1CCOC(c2cc(C(F)(F)F)nc3ncnn23)C1` (stereo not shown) [Product 54], in experiment [1] (setting [2]), the maximal response (Emax) was found to be 25.1% and the IC50 was more than 10000 nM.
Consider `CC(=O)Nc1ncc(CN2CCC[C@H](c3cc4cc[nH]c4nc3C)C2)s1` (single isomer, unassigned) [Product 75], for which, in experiment [1] (setting [2]), the “Enzymatic Emax (%)” value amounted to 100.81% and the “Enzymatic hOGA; pIC50” value was 8.57. On OGA, the “Cellular hOGA; pEC50” value turned out to be 7.90 and the “Cellular Emax (%)” value is 119.60%.
Taken in the same sequence, the figures for `CC(=O)Nc1ncc(CN2CCC[C@H](c3cnc4cc[nH]c4c3)C2)s1` (single isomer, unassigned) [Product 80] were 99.58%, 7.69, 7.72 and 109.88%.
Consider `CC(=O)Nc1ncc(CN2CCC(c3cc(C)nc4ccnn34)C2)s1` (stereo not shown) [Product 21], for which, in experiment [1] (setting [2]), the maximal response (Emax) is 98.3% and the IC50 was 407 nM.
Consider `CC(=O)Nc1ncc(CN2CCC3(CC3)C(c3cc(C(F)F)nc4ncnn34)C2)s1` (stereo not shown) [Product 64], for which, in experiment [1] (setting [3]), the Emax was 101% and the IC50 is 69.2 nM. In addition, at OGA, the midpoint of the response, the EC50, lay at 4790 nM and the maximal effect (Emax) is 84.5%.
For the compound `CC(=O)Nc1ncc(CN2CCCC(c3cc(C)nc4nccn34)C2)s1` (stereo not shown) [Product 17], in experiment [1] (setting [2]), the maximal response (Emax) was determined as 101% and the IC50 is 8.51 nM. Further, on OGA, the half-maximal effective concentration (EC50) was 55 nM and the Emax turned out to be 106%.
For `CC(=O)Nc1ncc(CN2CC[C@H](C)[C@@H](c3cc(C(F)F)nc4ncnn34)C2)s1` [Product 16], in experiment [1] (setting [3]), the maximal effect (Emax) turned out to be 92.5% and the IC50 was 1820 nM. In addition, in experiment [1] (setting [2]), the Emax came out at 94.5% and the IC50 was 955 nM.
As for `CC(=O)Nc1ncc(CN2CCCC(c3cc4ccn(C)c4nc3C)C2)s1` (stereo not shown) [Product 101], in experiment [1] (setting [2]), the maximal response (Emax) was 102% and the IC50 was 6.61 nM. For the same compound, on OGA, the EC50 was 9.33 nM and the Emax came to 114%.
Take `CC(=O)Nc1ncc(S(=O)(=O)N2CCC(c3cc(C)nc4ncnn34)C2)s1` (racemic) [Product 8]: in experiment [1] (setting [3]), the Emax came to 89% and the IC50 is 1550 nM.
In the same order, the values of `CC(=O)Nc1ncc(S(=O)(=O)N2CCCC(c3cc(C(F)F)nc4nccn34)C2)s1` (racemic) [Product 5] are 99.4% and 67.6 nM.
`CC(=O)Nc1ncc(S(=O)(=O)N2CCCCC(c3ccnc4ncnn34)C2)s1` (stereo not shown) [Product 109]: in experiment [1] (setting [3]), the Emax was 95.4% and the IC50 is 437 nM.
Turning to `CC(c1ccc2c(c1)OCO2)N1CCC(Cc2cccc3nccn23)C1` (stereo not shown) [Product 67], in experiment [1] (setting [2]), the Emax turned out to be 95.7% and the IC50 was 102 nM.
In the case of `CC(=O)Nc1ncc(CN2CCC(c3c(F)c(C)nc4ncnn34)C2)s1` (stereo not shown) [Product 19], in experiment [1] (setting [2]), the Emax was 97.2% and the IC50 is 204 nM.
As to `CC(=O)Nc1ncc(CN2C[C@@H](c3cc(C)nc4ncnn34)C[C@@H](C(F)(F)F)C2)s1` (mixture of isomers) [Product 84], in experiment [1] (setting [2]), the maximum response (Emax) was determined as 88.5% and the IC50 was 1480 nM.
In the same order, the values of `CC(=O)Nc1ncc(CN2CCCC(C)(c3cc(C(F)F)nc4ncnn34)C2)s1` (stereo not shown) [Product 61] are 27.4% and more than 10000 nM.
On to `CC(=O)Nc1ncc(S(=O)(=O)N2CCC[C@H](c3ccnc4ncnn34)C2)s1` [Product 4], for which, in experiment [1] (setting [3]), the Emax was determined as 107% and the IC50 is 30.9 nM.
Taken in the same sequence, the figures for `CC(=O)Nc1ncc(S(=O)(=O)N2CCCC(c3ccnc4nccn34)C2)s1` (racemic) [Product 2] were 98.4% and 186 nM.
Take `Cc1cc(C2CN(C(C)c3ccc4c(c3)OCO4)CCO2)n2ncnc2n1` (stereo not shown) [Product 53]: in experiment [1] (setting [2]), the Emax was found to be 64.6% and the IC50 is 6460 nM.
Consider `CC(=O)Nc1ncc(S(=O)(=O)N2CCC[C@@H](c3ccnc4ncnn34)C2)s1` [Product 1], for which, in experiment [1] (setting [3]), the Emax came to 94.2% and the IC50 is 871 nM.
`CC(=O)Nc1ncc(CN2CCC(c3cc(C)nc4ncnn34)C2)s1` (stereo not shown) [Product 18]: in experiment [1] (setting [2]), the Emax came to 97.3% and the IC50 is 295 nM.
Taken in the same sequence, the figures for `CC(=O)Nc1ncc(CN2CCCC(c3cc4c(ccn4C)nc3C)C2)s1` (stereo not shown) [Product 105] were 102% and 7.41 nM.
